This note sets out measurements from ChEMBL document CHEMBL3600354, “Nitric oxide inhibitory activity and antioxidant evaluations of 2-benzoyl-6-benzylidenecyclohexanone analogs, a novel series of curcuminoid and diarylpentanoid derivatives” (Bioorg Med Chem Lett, 2015).

≈ marks a conversion by molar mass, not a printed value. Bounds are passed on as bounds.

Data set [1] can be described thus: Antioxidant activity assessed as DPPH radical scavenging activity at 200 uM incubated for 30 mins under dark conditions. In kind it is physicochemical. To be noted: 0.5 h. On the technique in general: Loss of DPPH colour is used to gauge radical scavenging.
The subject of data set [2] is RAW264.7. Briefly: Cytotoxicity against LPS/IFNgamma-stimulated mouse RAW264.7 cells by MTT assay. It counts as cell-based.
In data set [3] the test system is RAW264.7. As to the kind of experiment: Inhibition of nitric oxide production in LPS/IFNgamma-stimulated mouse RAW264.7 cells at 50 uM incubated for 17 hrs by Griess assay. In kind it is functional. The following applies: RAW264.7, 17 h. Background: The Griess reaction detects nitrite, a stable product of nitric oxide.
Data set [4] can be described thus: Antioxidant activity assessed as nitric oxide radical scavenging activity at 500 uM incubated for 60 mins with light exposure at room temperature by Griess assay. It counts as physicochemical. To be noted: 1 h.
Data set [5] relates to RAW264.7. Briefly: Inhibition of nitric oxide production in LPS/IFNgamma-stimulated mouse RAW264.7 cells incubated for 17 hrs by Griess assay. In kind it is functional, cell-based. To be noted: RAW264.7, 17 h.
Data set [6] in a line: Antioxidant activity incubated at 50 degC for 20 mins by FRAP assay. It counts as physicochemical.
Data set [7] in a line: Chemical stability in phosphate buffer at pH 7.4 at 20 uM measured over 30 mins at 5 mins intervals at 25 degC by ultraviolet absorption spectroscopy. It counts as physicochemical. The following applies: pH 7.4, 0.5 h.
Data set [8] can be described thus: Solubility in phosphate buffer at pH 7.4 stirred for 24 hrs at room temperature by HPLC method. It counts as physicochemical.
Data set [9] in a line: Stability in human liver microsomes assessed as compound remaining at 1 mM pre-incubated at 37 degC for 5 mins followed by NAPDH addition and further incubated at 37 degC for 120 mins by HPLC method. In kind it is ADME. To be noted: read-out: Stability. A general note: Microsomes from liver hold many membrane-bound enzymes, among them those of drug oxidation.
Data set [10] concerns Liver microsome. Briefly: Stability in human liver microsomes assessed as compound degradation at 1 mM pre-incubated at 37 degC for 5 mins followed by NAPDH addition and further incubated at 37 degC for 15 to 120 mins by HPLC method. It counts as ADME. To be noted: 1000 µM.
Data set [11] is described as follows: Antioxidant activity assessed as DPPH radical scavenging activity incubated for 30 mins under dark conditions. In kind it is physicochemical.

One may read the IC50 as the concentration that gives 50% inhibition. The term inhibition denotes the change of the read-out against control, counted positive when it falls. The low end stands for little suppression, the high end for strong suppression. Regarding `COc1cccc(/C=C2\CCCC(C(=O)c3ccccc3)=C2O)c1`, the figures for the “inhibition (INH)” value in data set [1] and in [4] were 21.8% and 28.3%, respectively. For the same compound, the IC50 in data set [2] is greater than 100 µM; in data set [5], 32.1 µM. In addition, in [3], the inhibition at 50 µM was 71.6%. For the same compound, the Activity in [6] came to 0.018 mmolequiv/L.
One may read the solubility as how much of the substance goes into solution per volume. A high value points to much dissolved substance. On to `O=C(C1=C(O)/C(=C/c2ccc(O)c(O)c2)CCC1)c1ccccc1`, for which the values for the Stability entry in [7] and in data set [10] were “Stable” and “Unstable”, respectively. The same compound returned a solubility at 24 h in data set [8] of 3.3 µM (≈ 1.06 µg/mL). In addition, the remaining at 2 h, 1000 µM in data set [9] was greater than 60%.
For `O=C(C1=C(O)/C(=C/c2cccc3ccccc23)CCC1)c1ccccc1`, the results for the “inhibition (INH)” value in data set [1] and in data set [4] were 17.8% and 14.8%, respectively. Further, 50 µM produced 15% inhibition in data set [3]. Moreover, the Activity in data set [6] turned out to be 0.015 mmolequiv/L.
On the same counts, the results for `O=C(C1=C(O)/C(=C/c2ccc3ccccc3c2)CCC1)c1ccccc1` are 11.7%, 21%, 9.3% and 0.073 mmolequiv/L.
Turning to `O=C(C1=C(O)/C(=C/c2cccs2)CCC1)c1ccccc1`, the “inhibition (INH)” value worked out at 21.8% in data set [1] and 3.3% in [4]. In [3], the inhibition at 50 µM is 8.2%. Moreover, the Activity in data set [6] stood at 0.177 mmolequiv/L.
For the compound `Cc1ccc(/C=C2\CCCC(C(=O)c3ccccc3)=C2O)s1`, the “inhibition (INH)” value in data set [1] is given as 18.4%; in data set [4] it was 1.6%. In addition, 50 µM produced 7.6% inhibition in data set [3]. The Activity in [6] was determined as 0.14 mmolequiv/L.
Take `O=C1O[C@H]([C@@H](O)CO)C(O)=C1O` [ASCORBIC ACID]: the “inhibition (INH)” value in data set [4] was 2.6%.
On to `Cc1cc(C(C)(C)C)c(O)c(C(C)(C)C)c1` [BUTYLATED HYDROXYTOLUENE], for which the “inhibition (INH)” value in [4] was 6.5%. In data set [6], this compound displayed an Activity of 0.798 mmolequiv/L.
`COc1cc(/C=C/C(=O)CC(=O)/C=C/c2ccc(O)c(OC)c2)ccc1O` [CURCUMIN]: the “inhibition (INH)” value in data set [1] came out at 84.2%; in data set [4], 88.3%. The Stability entry in [7] and in [10] was “Unstable” each time. Further, the IC50 in data set [2] amounted to 28.8 µM; in data set [5], 14.7 µM; in data set [11], 23.6 µM. This compound also had a solubility at 24 h in data set [8] of 1.1 µM (≈ 0.405 µg/mL). The compound further yielded an inhibition at 50 µM in data set [3] of 99.3%. Besides, the remaining at 2 h, 1000 µM in data set [9] was less than 20%. In [6], this compound displayed an Activity of 0.803 mmolequiv/L.
Take `Cc1c(C)c2c(c(C)c1O)CCC(C)(C(=O)O)O2` (configuration not stated) [TROLOX]: in [4], the “inhibition (INH)” value was 12.4%. This compound also gave an Activity in [6] of 0.395 mmolequiv/L.
